The nature of series [1]: Cyclic voltammetry, first half-wave potential. Type of series: physicochemical. Conditions: for E^I1/2 (first half-wave potential) / −E^I1/2: acetonitrile, Pt electrode, vs non-aqueous Ag/Ag+; for −E^I1/2: sign inverted, 0.1 M tetraethylammonium tetrafluoroborate, sweep rate 100 mV s^−1. The procedure:
The redox potentials of the members of the series were measured by cyclic voltammetry in acetonitrile as solvent, at room temperature, using a platinum electrode and 0.1 M tetraethylammonium tetrafluoroborate as the supporting electrolyte. […] The voltammograms were run in the potential range 0–2.0 V versus non-aqueous Ag/Ag+. The first half-wave potential values, E^I1/2, evaluated from the voltammograms obtained at a sweep rate of 100 mV s^−1, are summarized in Table 3.

Series [2] relates to HL-60 human promyelocytic leukemia cells. The series is described as follows: MTT cell growth inhibition assay, HL-60 promyelocytic leukemia cells, 72 h exposure. Type of series: cell-based. To be noted: for IC50: Homo sapiens, HL-60, promyelocytic leukemia cell line, MTT, 72 h, mean of six determinations, read-out: IC50 ± SEM HL-60.
In series [3] the test system is MRC-5 normal human lung fibroblasts. Briefly: MTT cell growth inhibition assay, MRC-5 normal lung fibroblasts, 72 h exposure. To be noted: MRC5, 72 h, read-out: IC50 ± SEM MRC-5.
Protocol: Aminoisoquinolinequinones 5a–h and 6a–f were evaluated for in vitro antiproliferative activity against normal human lung fibroblast MRC-5 and two human cancer cells lines: AGS gastric adenocarcinoma and HL-60 promyelocytic leukemia cells, in 72 h drugs exposure assays. The antiproliferative activity of the new compounds was measured using conventional microculture tetrazolium reduction assays [25, 26, 27].
The cell lines used in this work were obtained from the American Type Culture Collection (ATCC, Manasas, VA, USA). […] The cells were stored in medium containing 10% glycerol in liquid nitrogen. […] Cells were sub-cultured once a week and the medium was changed every two days. Cells were grown in the following media: MRC-5 in Eagle minimal essential medium (EMEM), AGS cells in Ham F-12, and HL-60 in suspension in RPM1. The EMEM medium contained 2 mM L-glutamine, 1 mM sodium pyruvate and 1.5 g/L sodium hydrogen carbonate. Ham F-12 was supplemented with 2 mM L-glutamine and 1.5 g/L sodium hydrogen carbonate. RPM1 medium containing 1mM sodium pyruvate and 2.0 g/L sodium bicarbonate. […] For the experiments, cells were plated at a density of 50,000 cells/mL in 96-well plates. One day after seeding, the cells were treated with the medium containing the compounds at concentrations ranging from 0 up to 100 μM during 3 days. […] The compounds were dissolved in DMSO (1% final concentration) and complete medium. Untreated cells (medium containing 1% DMSO) were used as controls. At the end of the incubation, the MTT reduction (3-(4,5-dimethylthiazol-2-yl)-2,5-diphenyltetrazolium bromide) assay was carried out to determine cell viability. The final concentration of MTT was 1 mg/mL. The culture medium containing the compounds under evaluation, was removed from each well by means by vacuum aspiration before adding the MTT solution. MTT metabolite was dissolved adding 100 µL of ethanol (acidified with HCl). The plates were shaken for 10 min and the absorbance was measured at 550 nm using a Universal Microplate Reader (ELx800, Bio-Tek Instruments Inc., Winnoski, VT, USA). Six replicates for each concentration were used and the values were averaged. […] The IC50 value was obtained adjusting the dose-response curve to a sigmoidal model (a + (b − a)/1 + 10^(x − c)), where c = log IC50.
Series [4] has as its system AGS human gastric adenocarcinoma cells. Briefly: MTT cell growth inhibition assay, AGS gastric adenocarcinoma cells, 72 h exposure. Type of series: cell-based. To be noted: for IC50: human gastric adenocarcinoma cell line, MTT, 72 h, mean of six determinations, read-out: IC50 ± SEM AGS; for selectivity index (IS), AGS: MRC-5 relative to AGS.

Where only a bound is given, the exact number is not on record here.

Take `COC(=O)c1c(C)ncc2c1C(=O)C=CC2=O` [3a]: in series [1], the “E^I1/2 (first half-wave potential)” value was −352 mV and the “−E^I1/2” value is given as 352 mV.

As for `COC(=O)c1c(C)nc(-c2ccccc2)c2c1C(=O)C=CC2=O` [3b, Methyl 3-methyl-5,8-dioxo-1-phenyl-5,8-dihydroisoquinoline-4-carboxylate], the melting point (usually the temperature of the solid-liquid transition) is 175 to 176.5 °C. Further, the “−E^I1/2” value in series [1] turned out to be 399 mV.

The compound `COC(=O)c1c(C)nc(-c2cccs2)c2c1C(=O)C=CC2=O` [3c, Methyl 3-methyl-5,8-dioxo-1-(thiophen-2-yl)-5,8-dihydroisoquinoline-4-carboxylate] yielded a melting point of 140 to 142.5 °C. The “−E^I1/2” value in series [1] is 392 mV.

The compound `COC(=O)c1c(C)nc(-c2ccco2)c2c1C(=O)C=CC2=O` [3d, Methyl 1-(furan-2-yl)-3-methyl-5,8-dioxo-5,8-dihydroisoquinoline-4-carboxylate] had a melting point of 159.5 to 160.5 °C. For the same compound, the “−E^I1/2” value in series [1] amounted to 415 mV.

Take `CC(=O)c1c(C)ncc2c1C(=O)C=CC2=O` [4a, 4-Acetyl-3-methylisoquinoline-5,8-dione]: the melting point was 146 to 148 °C. For the same compound, in series [1], the “E^I1/2 (first half-wave potential)” value was −344 mV and the “−E^I1/2” value is 344 mV.

Take `CC(=O)c1c(C)nc(-c2ccccc2)c2c1C(=O)C=CC2=O` [4b, 4-Acetyl-3-methyl-1-phenylisoquinoline-5,8-dione]: the melting point was 162.5 to 164 °C. For the same compound, the “−E^I1/2” value in series [1] came out at 416 mV.

Compound `CC(=O)c1c(C)nc(-c2cccs2)c2c1C(=O)C=CC2=O` [4c, 4-Acetyl-3-methyl-1-(thiophen-2-yl)isoquinoline-5,8-dione] registered a melting point of 161.5 to 163 °C. Also, the “−E^I1/2” value in series [1] was 430 mV.

`CC(=O)c1c(C)nc(-c2ccco2)c2c1C(=O)C=CC2=O` [4d, 4-Acetyl-1-(furan-2-yl)-3-methylisoquinoline-5,8-dione] yielded a melting point of 159 to 160 °C. Also, in series [1], the “−E^I1/2” value is recorded as 384 mV.

With `COC(=O)c1c(C)ncc2c1C(=O)C=C(Nc1ccccc1)C2=O` [5a], the IC50 (as a rule, the concentration that gives 50% inhibition) in series [2] came out at 14.8 ± 0.74 µM; in series [3] it was 2.7 ± 0.6 µM; in series [4], 1.1 ± 0.03 µM. Moreover, the “−E^I1/2” value in series [1] is 563 mV.

As for `COC(=O)c1c(C)ncc2c1C(=O)C=C(Nc1ccc(OC)cc1)C2=O` [5b], the IC50 in series [2] turned out to be 3.8 ± 0.07 µM; in series [3] it was 2.8 ± 0.8 µM; in series [4] it was 1.1 ± 0.1 µM. In addition, the “−E^I1/2” value in series [1] is 551 mV.

As to `COC(=O)c1c(C)nc(-c2ccccc2)c2c1C(=O)C=C(Nc1ccccc1)C2=O` [5c, Methyl 3-methyl-5,8-dioxo-1-phenyl-7-(phenylamino)-5,8-dihydroisoquinoline-4-carboxylate], the melting point is 169.9 to 171.4 °C. In addition, the IC50 in series [2] came out at 4.39 ± 0.26 µM. For the same compound, in series [1], the “−E^I1/2” value amounted to 560 mV. Also, in series [3], the IC50 was found to be 5.91 ± 0.36 µM. Moreover, the IC50 in series [4] was 2.52 ± 0.17 µM.

In turn, `COC(=O)c1c(C)nc(-c2ccccc2)c2c1C(=O)C=C(Nc1ccc(OC)cc1)C2=O` [5d, Methyl 7-(4-methoxyphenylamino)-3-methyl-5,8-dioxo-1-phenyl-5,8-dihydroisoquinoline-4-carboxylate] showed a melting point of 202 to 203.5 °C. Besides, the IC50 in series [2] was above 100 µM. The “−E^I1/2” value in series [1] was 583 mV. The IC50 in series [3] is above 100 µM. The “antiproliferative activity on AGS cancer cell line (in words)” value in series [4] (effect of phenyl group inserted at 1-position of 5b) is recorded as “suppression of the antiproliferative activity”. Besides, in series [4], the IC50 is above 100 µM.

As for `COC(=O)c1c(C)nc(-c2cccs2)c2c1C(=O)C=C(Nc1ccccc1)C2=O` [5e, Methyl 3-methyl-5,8-dioxo-7-(phenylamino)-1-(thiophen-2-yl)-5,8-dihydroisoquinoline-4-carboxylate], the melting point was in the range of 163.3 to 165.3 °C. Further, in series [2], the IC50 came out at 5.19 ± 0.31 µM. In series [1], the “−E^I1/2” value amounted to 565 mV. Moreover, the IC50 in series [3] is 9.89 ± 0.51 µM. In series [4], the IC50 stood at 4.24 ± 0.21 µM.

Take `COC(=O)c1c(C)nc(-c2cccs2)c2c1C(=O)C=C(Nc1ccc(OC)cc1)C2=O` [5f, Methyl 7-(4-methoxyphenylamino)-3-methyl-5,8-dioxo-1-(thiophen-2-yl)-5,8-dihydroisoquinoline-4-carboxylate]: the melting point is 214 to 216 °C. In addition, the IC50 in series [2] turned out to be 10.26 ± 0.09 µM. Besides, in series [1], the “−E^I1/2” value is recorded as 583 mV. In addition, the IC50 in series [3] was 9.19 ± 0.53 µM. In addition, the IC50 in series [4] was determined as 3.28 ± 0.13 µM.

In turn, `COC(=O)c1c(C)nc(-c2ccco2)c2c1C(=O)C=C(Nc1ccccc1)C2=O` [5g, Methyl 1-(2-furan-2-yl)-3-methyl-5,8-dioxo-7-(phenylamino)-5,8-dihydroisoquinoline-4-carboxylate] returned a melting point of 248 to 249 °C. Besides, in series [2], the IC50 was 5 ± 0.35 µM. In addition, in series [1], the “−E^I1/2” value amounted to 554 mV. Further, the IC50 in series [3] amounted to 4.72 ± 0.29 µM. Further, in series [4], the IC50 is 1.79 ± 0.11 µM.

As to `COC(=O)c1c(C)nc(-c2ccco2)c2c1C(=O)C=C(Nc1ccc(OC)cc1)C2=O` [5h, Methyl 1-(2-furan-2-yl)-7-(4-methoxyphenylamino)-3-methyl-5,8-dioxo-5,8-dihydroisoquinoline-4-carboxylate], the melting point fell in the range of 144 to 146 °C. Besides, the IC50 in series [2] worked out at 8.04 ± 0.49 µM. Further, the “−E^I1/2” value in series [1] worked out at 577 mV. The IC50 in series [3] turned out to be 4.58 ± 0.35 µM. In series [4], the IC50 stood at 1.83 ± 0.11 µM.

In turn, `CC(=O)c1c(C)ncc2c1C(=O)C=C(Nc1ccccc1)C2=O` [6a, 4-Acetyl-3-methyl-7-(phenylamino)isoquinoline-5,8-dione] gave a melting point of 178 to 180 °C. Further, in series [2], the IC50 turned out to be 1.24 ± 0.06 µM. Further, the “selectivity index (IS), HL-60” value in series [2] (MRC-5 relative to HL-60) was found to be 2.96. Further, in series [1], the E^I1/2 (half-wave potential) was -464 mV, the “E^I1/2 (first half-wave potential)” value is on record as −464 mV and the “−E^I1/2” value is reported as 464 mV. Moreover, the IC50 in series [3] was 3.67 ± 0.22 µM. Further, in series [4], the “selectivity index (IS), AGS” value came out at 3.08 and the IC50 stood at 1.19 ± 0.07 µM.

In turn, `CC(=O)c1c(C)nc(-c2ccccc2)c2c1C(=O)C=C(Nc1ccccc1)C2=O` [6b, 4-Acetyl-3-methyl-1-phenyl-7-(phenylamino)isoquinoline-5,8-dione] had a melting point of 181.5 to 183 °C. Further, in series [2], the IC50 turned out to be 4.74 ± 0.37 µM. Besides, in series [1], the “−E^I1/2” value is recorded as 588 mV. In addition, the IC50 in series [3] came to 5.51 ± 0.22 µM. The IC50 in series [4] worked out at 2.21 ± 0.09 µM.

Compound `CC(=O)c1c(C)nc(-c2cccs2)c2c1C(=O)C=C(Nc1ccccc1)C2=O` [6c, 4-Acetyl-3-methyl-7-(phenylamino)-1-(thiophen-2-yl)isoquinoline-5,8-dione] had a melting point of 93.5 to 94.5 °C. Also, in series [2], the IC50 was above 100 µM. Moreover, in series [1], the “−E^I1/2” value came out at 576 mV. Also, the IC50 in series [3] was above 100 µM. The IC50 in series [4] is above 100 µM.

Turning to `CC(=O)c1c(C)nc(-c2ccco2)c2c1C(=O)C=C(Nc1ccccc1)C2=O` [6d, 4-Acetyl-1-(2-furyl)-3-methyl-7-(phenylamino)isoquinoline-5,8-dione], the melting point fell in the range of 187 to 188.5 °C. Besides, the IC50 in series [2] was 8.19 ± 0.57 µM. Moreover, in series [1], the “−E^I1/2” value amounted to 533 mV. The IC50 in series [3] turned out to be 5.72 ± 0.24 µM. Also, the IC50 in series [4] turned out to be 1.79 ± 0.11 µM.

For the compound `COc1ccc(NC2=CC(=O)c3c(C(C)=O)c(C)nc(-c4ccccc4)c3C2=O)cc1` [6e, 4-Acetyl-7-(4-methoxyphenylamino)-3-methyl-1-phenylisoquinoline-5,8-dione], the melting point lay in the range of 162 to 163 °C. Further, the IC50 in series [2] was found to be 9.36 ± 0.72 µM. In addition, the “−E^I1/2” value in series [1] was 570 mV. In series [3], the IC50 was determined as 16.1 ± 1.11 µM. Also, the IC50 in series [4] amounted to 4.66 ± 0.28 µM.

Take `COc1ccc(NC2=CC(=O)c3c(C(C)=O)c(C)nc(-c4cccs4)c3C2=O)cc1` [6f, 4-Acetyl-7-(4-methoxyphenylamino)-3-methyl-1-(thiophen-2-yl)isoquinoline-5,8-dione]: the melting point is 188.5 to 190 °C. Besides, in series [2], the IC50 was above 100 µM. The “−E^I1/2” value in series [1] was 576 mV. The 50% inhibitory concentration (IC50) in series [3] is above 100 µM. Also, in series [4], the “selectivity index (IS), AGS” value is reported as above 23 and the IC50 was 4.28 ± 0.21 µM.

The values are drawn from paper PMC6271619, “Synthesis, Half-Wave Potentials and Antiproliferative Activity of 1-Aryl-substituted Aminoisoquinolinequinones” (Molecules, 2014).
